Our source for the HC50 and IC50 values is ChEMBL document CHEMBL1152749, “Haemolytic activity, cytotoxicity and membrane cell permeabilization of semi-synthetic and natural lupane- and oleanane-type saponins” (Bioorg Med Chem, 2009).

The nature of data set [1]: Toxicity in sheep erythrocytes assessed as induction of hemolysis. The data set is classed as cell-based, Ovis aries, Erythrocyte. The settings on record: read-out: HD50 (the source's name).
The subject of data set [2] is A549. The experiment in a line: Cytotoxicity against human A549 cells after 48 hrs by resazurin reduction test. The data set is classed as functional, cell-based. The settings on record: A549, 48 h.
In data set [3] the test system is DLD-1. The experiment in a line: Cytotoxicity against human DLD1 cells after 48 hrs by resazurin reduction test. The data set is classed as functional, cell-based. The settings on record: DLD-1, 48 h. A general note: The colour change of resazurin is a common sign of viable cells or microbes.
Data set [4] can be described thus: Cytotoxicity against human WS1 cells after 48 hrs by resazurin reduction test. The data set is classed as cell-based. The settings on record: WS1, 48 h.
For data set [5], the system named is A549. The data set is described as follows: Cell membrane permeabilization in human A549 cells assessed as drug level causing decrease in calcein fluorescence. The data set is classed as ADME, cell-based.
In data set [6] the test system is DLD-1. The data set is described as follows: Cell membrane permeabilization in human DLD1 cells assessed as drug level causing decrease in calcein fluorescence. The data set is classed as ADME, cell-based.
Data set [7] can be described thus: Cell membrane permeabilization in human WS1 cells assessed as drug level causing decrease in calcein fluorescence. The data set is classed as ADME, cell-based.

SMILES strings stand for the structures.

The IC50 is the point on the concentration scale where inhibition reaches its midpoint. For the compound `C=C(C)[C@@H]1CC[C@]2(C(=O)O)CC[C@]3(C)[C@H](CC[C@@H]4[C@@]5(C)CC[C@H](O[C@@H]6O[C@H](CO)[C@H](O)[C@H](O)[C@H]6O)C(C)(C)[C@@H]5CC[C@]43C)[C@@H]12`, in data set [1], the HC50 is above 100 µM. Also, the IC50 in the data set on A549 [2] was above 100 µM; in the data set with DLD-1 [3] it was above 100 µM; in data set [4], above 100 µM; in the data set on A549 [5], above 200 µM; in the data set with DLD-1 [6] it was above 200 µM; in data set [7], above 200 µM.
With `C=C(C)[C@@H]1CC[C@]2(C(=O)O[C@@H]3O[C@@H](C)[C@H](O)[C@@H](O)[C@H]3O)CC[C@]3(C)[C@H](CC[C@@H]4[C@@]5(C)CC[C@H](O[C@@H]6O[C@@H](C)[C@H](O)[C@@H](O)[C@H]6O)C(C)(C)[C@@H]5CC[C@]43C)[C@@H]12`, the HC50 in data set [1] came out at 85 µM. Further, the 50% inhibitory concentration (IC50) (in the data set with A549 [5]; in the data set on DLD-1 [6]; in data set [7]) was above 200 µM each time.
Turning to `CC1(C)CC[C@]2(C(=O)O)CC[C@]3(C)C(=CC[C@@H]4[C@@]5(C)CC[C@H](O)C(C)(C)[C@@H]5CC[C@]43C)[C@@H]2C1` [OLEANOLIC_ACID], the HC50 in data set [1] was above 100 µM. Besides, the concentration for half-maximal inhibition (IC50) with A549 [2] is 27 µM; in the data set with DLD-1 [3] it was above 100 µM; in data set [4] it was above 100 µM; with A549 [5], above 200 µM; in the data set on DLD-1 [6], above 200 µM; in data set [7], above 200 µM.
With `C=C(C)[C@@H]1CC[C@]2(C(=O)O)CC[C@]3(C)[C@H](CC[C@@H]4[C@@]5(C)CC[C@H](O[C@@H]6OC[C@H](O)[C@H](O)[C@H]6O)C(C)(C)[C@@H]5CC[C@]43C)[C@@H]12`, the HC50 in data set [1] is above 100 µM. Also, the IC50 in the data set on A549 [2] is 12 µM; with DLD-1 [3], 11 µM; in data set [4], 19 µM; in the data set on A549 [5], above 200 µM; in the data set on DLD-1 [6], above 200 µM; in data set [7], above 200 µM.
With `C=C(C)[C@@H]1CC[C@]2(CO)CC[C@]3(C)[C@H](CC[C@@H]4[C@@]5(C)CC[C@H](O)C(C)(C)[C@@H]5CC[C@]43C)[C@@H]12` [BETULIN], in data set [1], the HC50 was above 100 µM. Also, the half-maximal inhibitory concentration (IC50) (in the data set with A549 [5]; in the data set on DLD-1 [6]; in data set [7]) was above 200 µM throughout.
For `C=C(C)[C@@H]1CC[C@]2(CO[C@@H]3O[C@H](CO)[C@@H](O)[C@H](O)[C@H]3O)CC[C@]3(C)[C@H](CC[C@@H]4[C@@]5(C)CC[C@H](O[C@@H]6O[C@H](CO)[C@@H](O)[C@H](O)[C@H]6O)C(C)(C)[C@@H]5CC[C@]43C)[C@@H]12`, the HC50 in data set [1] is above 100 µM. In addition, the IC50 (in the data set on A549 [5]; in the data set on DLD-1 [6]; in data set [7]) was above 200 µM each time.
Take `C=C(C)[C@@H]1CC[C@]2(C(=O)O[C@@H]3O[C@H](CO)[C@@H](O)[C@H](O)[C@H]3O)CC[C@]3(C)[C@H](CC[C@@H]4[C@@]5(C)CC[C@H](O[C@@H]6O[C@H](CO)[C@@H](O)[C@H](O)[C@H]6O)C(C)(C)[C@@H]5CC[C@]43C)[C@@H]12`: the HC50 in data set [1] was above 100 µM. For the same compound, the IC50 (in the data set on A549 [5]; in the data set with DLD-1 [6]; in data set [7]) was above 200 µM in each case.
With `C=C(C)[C@@H]1CC[C@]2(C(=O)O[C@@H]3O[C@H](CO)[C@@H](O)[C@H](O)[C@H]3O)CC[C@]3(C)[C@H](CC[C@@H]4[C@@]5(C)CC[C@H](O)C(C)(C)[C@@H]5CC[C@]43C)[C@@H]12`, in data set [1], the HC50 was above 100 µM. The IC50 (in the data set with A549 [5]; in the data set with DLD-1 [6]; in data set [7]) was above 200 µM in each case.
In the case of `C=C(C)[C@@H]1CC[C@]2(CO[C@@H]3O[C@H](CO)[C@@H](O)[C@H](O)[C@H]3O)CC[C@]3(C)[C@H](CC[C@@H]4[C@@]5(C)CC[C@H](O[C@@H]6O[C@@H](C)[C@H](O)[C@@H](O)[C@H]6O)C(C)(C)[C@@H]5CC[C@]43C)[C@@H]12`, the HC50 in data set [1] was above 100 µM. In addition, the concentration for half-maximal inhibition (IC50) (in the data set on A549 [5]; in the data set with DLD-1 [6]; in data set [7]) was above 200 µM each time.
Take `C=C(C)[C@@H]1CC[C@]2(C(=O)O[C@@H]3O[C@H](CO)[C@@H](O)[C@H](O)[C@H]3O)CC[C@]3(C)[C@H](CC[C@@H]4[C@@]5(C)CC[C@H](O[C@@H]6O[C@@H](C)[C@H](O)[C@@H](O)[C@H]6O)C(C)(C)[C@@H]5CC[C@]43C)[C@@H]12`: the HC50 in data set [1] was above 100 µM. The IC50 (in the data set with A549 [5]; in the data set with DLD-1 [6]; in data set [7]) was above 200 µM each time.
As to `C=C(C)[C@@H]1CC[C@]2(C(=O)O[C@@H]3O[C@H](CO)[C@@H](O)[C@H](O)[C@H]3O)CC[C@]3(C)[C@H](CC[C@@H]4[C@@]5(C)CC[C@H](O[C@@H]6OC[C@H](O)[C@H](O)[C@H]6O)C(C)(C)[C@@H]5CC[C@]43C)[C@@H]12`, the HC50 in data set [1] is above 100 µM. Besides, the IC50 (with A549 [5]; with DLD-1 [6]; in data set [7]) was above 200 µM in each case.
As to `C=C(C)[C@@H]1CC[C@]2(C(=O)O)CC[C@]3(C)[C@H](CC[C@@H]4[C@@]5(C)CC[C@H](O)C(C)(C)[C@@H]5CC[C@]43C)[C@@H]12` [BETULINIC ACID], the HC50 in data set [1] is above 100 µM. The half-maximal inhibitory concentration (IC50) (in the data set with A549 [5]; with DLD-1 [6]; in data set [7]) was above 200 µM each time.
As for `C=C(C)[C@@H]1CC[C@]2(C(=O)O)CC[C@]3(C)[C@H](CC[C@@H]4[C@@]5(C)CC[C@H](O[C@H]6O[C@H](CO)[C@@H](O)[C@H](O)[C@@H]6O)C(C)(C)[C@@H]5CC[C@]43C)[C@@H]12`, in data set [1], the HC50 is above 100 µM. In addition, the half-maximal inhibitory concentration (IC50) (in the data set with A549 [5]; with DLD-1 [6]; in data set [7]) was above 200 µM in each case.
On to `C=C(C)[C@@H]1CC[C@]2(CO[C@@H]3O[C@@H](C)[C@H](O)[C@@H](O)[C@H]3O)CC[C@]3(C)[C@H](CC[C@@H]4[C@@]5(C)CC[C@H](O[C@@H]6O[C@@H](C)[C@H](O)[C@@H](O)[C@H]6O)C(C)(C)[C@@H]5CC[C@]43C)[C@@H]12`, for which the HC50 in data set [1] is above 100 µM. Besides, the concentration for half-maximal inhibition (IC50) (with A549 [5]; in the data set with DLD-1 [6]; in data set [7]) was above 200 µM each time.
Regarding `C=C(C)[C@@H]1CC[C@]2(CO)CC[C@]3(C)[C@H](CC[C@@H]4[C@@]5(C)CC[C@H](O[C@H]6O[C@H](CO)[C@@H](O)[C@H](O)[C@@H]6O)C(C)(C)[C@@H]5CC[C@]43C)[C@@H]12`, in data set [1], the HC50 was above 100 µM. For the same compound, the half-maximal inhibitory concentration (IC50) (with A549 [5]; in the data set with DLD-1 [6]; in data set [7]) was above 200 µM in each case.
For `C=C(C)[C@@H]1CC[C@]2(C(=O)O)CC[C@]3(C)[C@H](CC[C@@H]4[C@@]5(C)CC[C@H](O[C@@H]6OC[C@@H](O)[C@H](O)[C@H]6O)C(C)(C)[C@@H]5CC[C@]43C)[C@@H]12`, the HC50 in data set [1] is above 100 µM. Moreover, the IC50 (in the data set on A549 [5]; with DLD-1 [6]; in data set [7]) was above 200 µM throughout.
With `C=C(C)[C@@H]1CC[C@]2(CO[C@@H]3O[C@H](CO)[C@@H](O)[C@H](O)[C@H]3O)CC[C@]3(C)[C@H](CC[C@@H]4[C@@]5(C)CC[C@H](O[C@@H]6OC[C@H](O)[C@H](O)[C@H]6O)C(C)(C)[C@@H]5CC[C@]43C)[C@@H]12`, the HC50 in data set [1] was above 100 µM. For the same compound, the IC50 (in the data set with A549 [5]; with DLD-1 [6]; in data set [7]) was above 200 µM each time.
